{
  "source": "ChEMBL document CHEMBL3046783",
  "about": "“Synthesis of pyrimidine and condensed pyrimidine derivatives and their evaluation for anti-inflammatory activity” (2012)",
  "tested_on": "Rattus norvegicus",
  "test": "Anti-inflammatory activity in Rattus norvegicus albino (rat) assessed as inhibition of carrageenan-induced paw edema at 50 mg/kg, po administered 30 min before carrageenan challenge measured after 1 to 3 hr by plethysmometer analysis",
  "format": "functional",
  "data": [
    {"smiles": "CC(C)Cc1ccc(C(C)C(=O)O)cc1", "note": "(stereo not given) [IBUPROFEN]", "values": [
      {"measurement": "inhibition in vivo at 50 mg/kg", "value": 39, "unit": "%"}
    ]},
    {"smiles": "CC1(C)CC(C)(O)N(CCN2CCCC2)C(=S)N1", "note": "(stereo not given)", "values": [
      {"measurement": "inhibition in vivo at 50 mg/kg", "value": 8, "unit": "%"}
    ]},
    {"smiles": "CC1C=CN(CCc2c[nH]c3ccccc23)C(=S)N1", "note": "(stereo not given)", "values": [
      {"measurement": "inhibition in vivo at 50 mg/kg", "value": 25, "unit": "%"}
    ]},
    {"smiles": "CC1(C)CC(C)(O)N(Cc2ccncc2)C(=S)N1", "note": "(stereo not given)", "values": [
      {"measurement": "inhibition in vivo at 50 mg/kg", "value": 27, "unit": "%"}
    ]},
    {"smiles": "Cc1cccc2c1N1C(=S)NC(C)CC1N2", "note": "(stereo not given)", "values": [
      {"measurement": "inhibition in vivo at 50 mg/kg", "value": 0, "unit": "%"}
    ]},
    {"smiles": "CC1(C)CC2(C)Nc3ccc(C#N)cc3N2C(=S)N1", "note": "(stereo not given)", "values": [
      {"measurement": "inhibition in vivo at 50 mg/kg", "value": 39, "unit": "%"}
    ]},
    {"smiles": "CC1CC(O)N(CCN2CCCC2)C(=S)N1", "note": "(stereo not given)", "values": [
      {"measurement": "inhibition in vivo at 50 mg/kg", "value": 30, "unit": "%"}
    ]},
    {"smiles": "CC1CC(O)N(CCN2CCOCC2)C(=S)N1", "note": "(stereo not given)", "values": [
      {"measurement": "inhibition in vivo at 50 mg/kg", "value": 38, "unit": "%"}
    ]},
    {"smiles": "CC1=CC(C)(C)NC(=S)N1Cc1ccncc1", "values": [
      {"measurement": "inhibition in vivo at 50 mg/kg", "value": 25, "unit": "%"}
    ]},
    {"smiles": "CC1CC2Nc3ccc(Br)cc3N2C(=S)N1", "note": "(stereo not given)", "values": [
      {"measurement": "inhibition in vivo at 50 mg/kg", "value": 27, "unit": "%"}
    ]},
    {"smiles": "CC1(C)CC2(C)Nc3ccc(Br)cc3N2C(=S)N1", "note": "(stereo not given)", "values": [
      {"measurement": "inhibition in vivo at 50 mg/kg", "value": 24, "unit": "%"}
    ]},
    {"smiles": "CC1CC(O)N(CCN2CCCCC2)C(=S)N1", "note": "(stereo not given)", "values": [
      {"measurement": "inhibition in vivo at 50 mg/kg", "value": 29, "unit": "%"}
    ]},
    {"smiles": "CC1=CC(C)(C)NC(=S)N1c1cc(Br)ccc1N", "values": [
      {"measurement": "inhibition in vivo at 50 mg/kg", "value": 31, "unit": "%"}
    ]},
    {"smiles": "CC1=CC(C)(C)NC(=S)N1CC1CCCO1", "note": "(stereo not given)", "values": [
      {"measurement": "inhibition in vivo at 50 mg/kg", "value": 18, "unit": "%"}
    ]},
    {"smiles": "CC1=CC(C)(C)NC(=S)N1c1cc(C#N)ccc1N", "values": [
      {"measurement": "inhibition in vivo at 50 mg/kg", "value": 32, "unit": "%"}
    ]},
    {"smiles": "CC1CC(O)N(CC2CCCO2)C(=S)N1", "note": "(stereo not given)", "values": [
      {"measurement": "inhibition in vivo at 50 mg/kg", "value": 18, "unit": "%"}
    ]},
    {"smiles": "CC1=CC(C)(C)NC(=S)N1c1cc(C)ccc1O", "values": [
      {"measurement": "inhibition in vivo at 50 mg/kg", "value": 27, "unit": "%"}
    ]},
    {"smiles": "CC1CC(O)N(Cc2ccncc2)C(=S)N1", "note": "(stereo not given)", "values": [
      {"measurement": "inhibition in vivo at 50 mg/kg", "value": 30, "unit": "%"}
    ]},
    {"smiles": "CC1(C)CC(C)(O)N(CCN2CCOCC2)C(=S)N1", "note": "(stereo not given)", "values": [
      {"measurement": "inhibition in vivo at 50 mg/kg", "value": 35, "unit": "%"}
    ]},
    {"smiles": "CC1=CC(C)(C)NC(=S)N1CCc1c[nH]c2ccccc12", "values": [
      {"measurement": "inhibition in vivo at 50 mg/kg", "value": 30, "unit": "%"}
    ]}
  ]
}
